Source: patent publication US4550186A, “Binuclear copper (II) carboxylates formed from amine-carboxyboranes” (Duke University, priority 1983, dated 1985)

Assays:
[1] = target: T1, phosphoribosyl pyrophosphate amidotransferase (Mus musculus, UniProt Q8CIH9); assay: In vitro phosphoribosyl pyrophosphate amidotransferase activity; type: biochemical; details: read-out: ID50, Phosphoribosyl pyrophosphate amidotransferase activity
Method: (§1) CF1 male mice (~30 g) were implanted with 2×10^6 Ehrlich ascites tumor cells, intraperitoneally on Day 0. Compound I was suspended by homogenation in 0.05% polysorbate.80-water and administered intraperitoneally at 10 and 20 mg/kg for 9 days to determine its effectiveness for inhibition of tumor growth. Mice were sacrificed on Day 10, and the ascites fluid was collected from the peritoneal cavity. The volume and ascrit (packed cell volume) were determined for each animal and the percent inhibition of tumor growth was calculated. For the metabolic studies, mice were treated on Days 8 and 9 with 10 mg/kg of Compound I, intraperitoneally. […]
(§2) Carbamyl phosphate synthetase activity was determined using the reaction medium of Kalman et al [Am. […] Citrulline formed from ornithine was measured at 490 nm by the method of Archibald [J. Biol. Chem., 156, 121 (1944)]. […] The ^14 CO2 generated in 15 min was trapped in 1M KOH and counted. Thymidylate synthetase activity was determined using a post-mitochondrial supernatant (9000 g×10 min) and 5 μCi of 5-^3 H-deoxyuridine monophosphate (14 Ci/mmol) according to the method of Kampf et al [ J. Med. Chem., 19, 903 (1976)]. ^14 C-Formate incorporation into purines was determined by the method of Spassova et al [Biochem. Pharmacol., 25, 923 (1976)] using 0.5 μCi of ^14 C-formic acid (52.0 mCi/mmol). […] The Rf value for xanthine monophosphate was scraped and counted. […]

[2] = test system: Holtzman male rats; assay: Rat liver, small intestine and fecal lipid extraction; type: in vivo; details: 14 days 10 mg/kg/day orally
[3] = Relative solubilities in solvents; type: physicochemical
Source text: Solvents in which ligand exchange reactions or initial formation of the complex may take place depend on the structure of the amine portion of the complex and on the ligand being introduced as is well understood by those skilled in the art. Typical solvents which may be used include water and polar organic solvents, such as methanol and pyridine. Typical of solubilities are the following relative solubilities of {Cu[(Me3 NBH2 COO)2.Me3 NBH2 CO2 H]}2 : […]

[4] = target: T1, phosphoribosyl pyrophosphate amidotransferase; assay: In vivo phosphoribosyl pyrophosphate amidotransferase activity
Method: as §1, §2

T1 sequence (Q8CIH9 12-517): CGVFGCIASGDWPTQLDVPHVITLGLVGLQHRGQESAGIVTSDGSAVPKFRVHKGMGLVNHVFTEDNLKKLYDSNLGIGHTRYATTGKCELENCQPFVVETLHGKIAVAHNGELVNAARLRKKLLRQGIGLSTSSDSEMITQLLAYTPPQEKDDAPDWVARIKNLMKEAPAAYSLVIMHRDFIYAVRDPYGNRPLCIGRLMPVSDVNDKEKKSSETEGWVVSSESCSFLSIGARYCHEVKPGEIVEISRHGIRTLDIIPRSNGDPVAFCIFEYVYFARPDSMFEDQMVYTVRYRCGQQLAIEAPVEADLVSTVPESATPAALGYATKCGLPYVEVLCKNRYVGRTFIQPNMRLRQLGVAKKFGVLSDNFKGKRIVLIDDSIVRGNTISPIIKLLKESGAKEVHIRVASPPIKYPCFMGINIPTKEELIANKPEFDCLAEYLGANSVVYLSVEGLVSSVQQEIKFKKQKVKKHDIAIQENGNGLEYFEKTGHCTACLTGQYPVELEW

Substance: {Cu[(CH3)3 N.BH2 CO2 ]2.(CH3)3 N.BH2 COOH} [Compound I]
- IC50 [1]: 523 µM
- Cholesterol ([2]; rat Feces): 110 ± 6 Percent Control
- Mg of Lipid Extracted ([2]; rat Feces): 123 ± 5 Percent Control
- Neutral Lipids ([2]; rat Feces): 131 ± 7 Percent Control
- Phospholipids ([2]; rat Feces): 183 ± 8 Percent Control
- Protein ([2]; rat Feces): 68 ± 6 Percent Control
- Triglyceride ([2]; rat Feces): 133 ± 7 Percent Control
- Cholesterol ([2]; rat Liver): 65 ± 6 Percent Control
- Mg of Lipid Extracted ([2]; rat Liver): 51 ± 5 Percent Control
- Neutral Lipids ([2]; rat Liver): 93 ± 9 Percent Control
- Phospholipids ([2]; rat Liver): 93 ± 9 Percent Control
- Protein ([2]; rat Liver): 99 ± 7 Percent Control
- Triglyceride ([2]; rat Liver): 76 ± 7 Percent Control
- Cholesterol ([2]; rat Small Intestine): 47 ± 6 Percent Control
- Mg of Lipid Extracted ([2]; rat Small Intestine): 43 ± 5 Percent Control
- Neutral Lipids ([2]; rat Small Intestine): 17 ± 3 Percent Control
- Phospholipids ([2]; rat Small Intestine): 46 ± 5 Percent Control
- Protein ([2]; rat Small Intestine): 111 ± 8 Percent Control
- Triglyceride ([2]; rat Small Intestine): 40 ± 4 Percent Control
- Solubility ([3]; 2-Chloro-2-methylpropane): insoluble
- Solubility ([3]; Acetic Acid): moderately soluble
- Solubility ([3]; Acetone): insoluble
- Solubility ([3]; Acetonitrile): moderately soluble
- Solubility ([3]; Benzene): insoluble
- Solubility ([3]; Chloroform): insoluble
- Solubility ([3]; Diethyl ether): insoluble
- Solubility ([3]; Dimethyl sulfoxide): moderately soluble
- Solubility ([3]; Ethanol): very slightly soluble
- Solubility ([3]; Ethyl Acetate): insoluble
- Solubility ([3]; Isopropanol): insoluble
- Solubility ([3]; Isopropyl ether): insoluble
- Solubility ([3]; Methanol): moderately soluble
- Solubility ([3]; Methylene chloride): slightly soluble
- Solubility ([3]; Pentane): insoluble
- Solubility ([3]; Pyridine): moderately soluble
- Solubility ([3]; Tetrahydrofuran): insoluble
- Solubility ([3]; Water): very soluble
- Phosphoribosyl pyrophosphate amidotransferase activity ([4]; 10 mg/kg/day I.P. on Days 8 and 9): 41 ± 3 % Control
- Phosphoribosyl pyrophosphate amido transferase activity reduced ([4]; drug administration for 2 days): 59%
